From US8227203B2, “Method for testing or screening protein synthesis inhibitors” (The Trustees of the University of Pennsylvania, priority 2007, dated 2012)

Assays:
HeLa PV cells = experiment: SMN sub-cellular localization by indirect immunofluorescence (anti-SMN 2B1); assay type: cell-based; details: for completeness of SMN nuclear accumulation compared with CHX: ER stress inducers, FIG. 6B; for redistribution of SMN from the cytoplasm to the nucleus (nuclear accumulation of SMN): HeLa cells, short treatment (2-6 hours), immunofluorescence; for nuclear translocation of SMN at longer times: longer times (>24 hr), FIG. 5a
Description: (§1) HeLa PV were cultured in Dulbecco's modified Eagle's medium (Invitrogen) supplemented with 10% fetal bovine serum (Invitrogen). For screening, cells were seeded onto 384-well plates or, for specific experiments, on glass coverslips the day before treatment. Compounds were added directly into the culture medium to the indicated concentration and the cells were then maintained at 37° C. in a 5% CO2 humidified atmosphere for the duration of the treatment. Dispensing of compounds and other automatic liquid handling steps were performed with a Beckman FX multi-channel system equipped with Hudson Crane robotic systems.
(§2) The following mouse monoclonal antibodies were used for indirect immunofluorescence: 2B1 (anti-SMN), 2E17 (anti-Gemin2), 12H12 (anti-Gemin3), 10G11 (anti-Gemin5), 6E2 (anti-Gemin7), 10E10 (anti-PABP), 6BG10 (anti-FXR1), Y12 (anti-Sm) and 9H10 (anti-hnRNP A1). An affinity-purified rabbit polyclonal antibody was used to detect Gemin6.
(§3) Indirect immunofluorescence on HeLa PV cells was performed as follows: HeLa cells, plated on glass coverslips, were briefly washed with PBS, fixed in 2% formaldehyde/PBS for 20 minutes at room temperature, permeabilized in 0.5% Triton X-100/PBS for 5 min at room temperature. Cells were blocked in 3% bovine serum albumin for 1 hour at room temperature. Double-label immunofluorescence experiments were performed by separate sequential incubations of each primary antibody, diluted in PBS containing 3% bovine serum albumin, followed by the specific secondary coupled to fluorescein isothiocyanate or TXRD. All incubations were at room temperature for 1 hour. Indirect epifluorescence microscopy was performed with a Nikon Eclipse E800 microscope. Digital images were collected with a Cook Sensicam high performance camera and processed with the IP laboratory software. Processing of samples for immunofluorescence microscopy on cells cultured in 384-well plates was automated and performed with the aid of microplate washers (ELX405, Bio-Tek) in a similar manner to that previously used for individual samples on glass slides. The cells were also stained with DAPI to allow definition of the nucleus in each cell. Digital images were acquired with an automated microscopy and analysis system (IN Cell Analyzer 1000, GE Healthcare). Images were analyzed using automated algorithms with parameters set to calculate mean pixel intensity in each nucleus (defined by DAPI staining and acquired in a separate channel), cytoplasm, and total cell, as well as the relevant calculated ratios of these values.
Based on the results obtained in Example 1, a library of ˜5,000 biologically active small molecules was screened on HeLa cells in 384-well plates. Each well was incubated with a different compound (at 10 μM) and the cells were processed for indirect immunofluorescence. Digital images were collected from six fields in each well and analyzed using imaging algorithms for multiple parameters including relative nuclear and cytoplasmic intensities, and number, size and signal intensity of Gems. DAPI-stained images were collected in a separate channel to define the boundary of each nucleus. Images of individual fields in wells were flagged by the software as showing a significant change in SMN sub-cellular localization. These individual wells were examined directly, and active compounds were re-tested for verification (FIG. 2).

HeLa cells [1] = experiment: Sub-cellular localization of Gemins by immunostaining; assay type: cell-based
Description: as §1, with “systems. […]” for “systems.”
Indirect immunofluorescence on HeLa PV cells was performed as follows: HeLa cells, plated on glass coverslips, were briefly washed with PBS, fixed in 2% formaldehyde/PBS for 20 minutes at room temperature, permeabilized in 0.5% Triton X-100/PBS for 5 min at room temperature. […] Images were analyzed using automated algorithms with parameters set to calculate mean pixel intensity in each nucleus (defined by DAPI staining and acquired in a separate channel), cytoplasm, and total cell, as well as the relevant calculated ratios of these values. […]

[2] = test system: Hela cells with reduced SMN by RNAi; experiment: SMN localization in HeLa cells with reduced SMN by RNAi (shRNA targeting SMN); assay type: cell-based; details: vs cells expressing non-targeting shRNA; 10 μM CHX 6 hours (FIG. 7)
Description: as §3, with “The cells were also stained with DAPI to allow definition of the nucleus in each cell. Digital images were acquired with an automated microscopy and analysis system (IN Cell Analyzer 1000, GE Healthcare).” left out

HeLa cells [3] = experiment: Cell viability / toxicity of treated cells; details: overnight treatment with 10 μM CHX
HeLa cells [4] = experiment: Localization of other nuclear and cytoplasmic proteins (hnRNP A1, PABP, FXR1, snRNPs) by immunostaining; assay type: cell-based; details: 6 hrs of 10 μM CHX (FIG. 3c)
Description: as §2
Indirect immunofluorescence on HeLa PV cells was performed as follows: HeLa cells, plated on glass coverslips, were briefly washed with PBS, fixed in 2% formaldehyde/PBS for 20 minutes at room temperature, permeabilized in 0.5% Triton X-100/PBS for 5 min at room temperature. Cells were blocked in 3% bovine serum albumin for 1 hour at room temperature. Double-label immunofluorescence experiments were performed by separate sequential incubations of each primary antibody, diluted in PBS containing 3% bovine serum albumin, followed by the specific secondary coupled to fluorescein isothiocyanate or TXRD. All incubations were at room temperature for 1 hour. Indirect epifluorescence microscopy was performed with a Nikon Eclipse E800 microscope. […] Images were analyzed using automated algorithms with parameters set to calculate mean pixel intensity in each nucleus (defined by DAPI staining and acquired in a separate channel), cytoplasm, and total cell, as well as the relevant calculated ratios of these values.

**Q.** Which results are given for `C/C=C(/C)C(=O)O[C@H]1C(C)=C2[C@H]([C@@H]1OC(=O)CCCCCCC)[C@@](C)(OC(C)=O)C[C@H](OC(=O)CCC)[C@@]1(O)[C@H]2OC(=O)[C@@]1(C)O` [thapsigargin]?
**A.** SMN localization (FIG. 6b) (HeLa PV cells; 10 μM): nuclear accumulation; completeness of SMN nuclear accumulation compared with CHX (HeLa PV cells): not as complete as that seen after treatment with high levels of CHX; redistribution of SMN from the cytoplasm to the nucleus (nuclear accumulation of SMN) (HeLa PV cells): caused SMN to accumulate in the nucleus

**Q.** Which “localization of Gemin3 and Gemin5” value (HeLa cells [1]; 24 hour treatment, 10 mM VPA (FIG. 5c)) does the source give for `CCCC(CCC)C(=O)O` [valproic acid] here?
**A.** remain predominantly cytoplasmic

**Q.** And the “concentration dependence of nuclear localization of SMN” value (HeLa PV cells; 2-10 mM VPA (FIG. 5b))?
**A.** clear concentration dependence effect

**Q.** And the “nuclear translocation of SMN at longer times” value (shortened to “nuclear translocation of SMN”) (HeLa PV cells)?
**A.** caused the same effect as protein synthesis inhibitors

**Q.** Which results are given for tunicamycin?
**A.** SMN localization (FIG. 6b) (HeLa PV cells; 10 μg/ml): nuclear accumulation; completeness of SMN nuclear accumulation compared with CHX (HeLa PV cells): not as complete as that seen after treatment with high levels of CHX; redistribution of SMN from the cytoplasm to the nucleus (nuclear accumulation of SMN) (HeLa PV cells): caused SMN to accumulate in the nucleus

**Q.** Which results are given for `C[C@@H]1C[C@@H]([C@H](O)CC2CC(=O)NC(=O)C2)C(=O)[C@@H](C)C1` [cycloheximide]?
**A.** SMN nuclear accumulation in cells with reduced SMN [2]: showed a similar effect; nuclear accumulation of SMN complex components (Gemins) (HeLa cells [1]; 6 hours 10 μM CHX (FIG. 4)): causes most of the components of the SMN complex to accumulate in the nucleus; cell viability (HeLa cells [3]): no reduction in cell viability; relation of nuclear accumulation of SMN to inhibition of protein synthesis (HeLa PV cells): proportional to the extent of inhibition of protein synthesis; concentration dependence of SMN redistribution from the cytoplasm to the nucleus (HeLa PV cells; 0.1-40 μM (FIG. 3a, b)): concentration-dependent; treatment time after which the effect on SMN redistribution was evident (HeLa PV cells; HeLa PV cells, 10 μM CHX (FIG. 3a)): 2 h; redistribution of SMN from the cytoplasm to the nucleus (nuclear accumulation of SMN) (HeLa PV cells): most striking accumulation of SMN in the nucleus; SMN remaining in the cytoplasm (HeLa PV cells; after 8 or more hours of treatment): little SMN detected in the cytoplasm; reversibility of SMN nuclear accumulation (HeLa PV cells; cells washed and placed in fresh medium devoid of cycloheximide): reversible; SMN localization after overnight treatment (HeLa PV cells; overnight treatment with 10 μM CHX): all of the SMN was localized to the nucleus; localization of hnRNP A1, PABP, FXR1 and snRNPs (HeLa cells [4]): not significantly affected

**Q.** With `CC(/C=C/C(=O)NO)=C\[C@@H](C)C(=O)c1ccc(N(C)C)cc1` [trichostatin A] as the compound, how does the “nuclear translocation of SMN” value (HeLa PV cells) read?
**A.** caused the same effect as protein synthesis inhibitors

**Q.** How did the “nuclear translocation of SMN” value (HeLa PV cells) turn out when `O=C(CCCCCN1C(=O)c2cccc3cccc(c23)C1=O)NO` [scriptaid] was run?
**A.** caused the same effect as protein synthesis inhibitors

**Q.** `CC[C@H]1CN2CCc3cc(OC)c(OC)cc3[C@@H]2C[C@@H]1C[C@H]1NCCc2cc(OC)c(OC)cc21` [emetine] was tested. Which “SMN localization (FIG. 6b)” value (HeLa PV cells; 10 μM) did it give?
**A.** nuclear accumulation

**Q.** What about the “redistribution of SMN from the cytoplasm to the nucleus (nuclear accumulation of SMN)” value (from here on “redistribution of SMN from the cytoplasm”) (HeLa PV cells) of the same compound?
**A.** showed the same effect as cycloheximide

**Q.** For `CCOC(=O)CN1C(=O)CC(C[C@@H](O)[C@@H]2C[C@@H](C)C[C@H](C)C2=O)CC1=O` [cycloheximide-N-ethylethanoate], which “redistribution of SMN from the cytoplasm” value (HeLa PV cells) is on record?
**A.** did not show any effect

**Q.** How did the “SMN localization (FIG. 6b)” value (HeLa PV cells; 10 μM) turn out when `COc1ccc(C[C@H](N)C(=O)N[C@H]2[C@@H](O)[C@H](n3cnc4c(N(C)C)ncnc43)O[C@@H]2CO)cc1` [puromycin] was run?
**A.** nuclear accumulation

**Q.** What about the “redistribution of SMN from the cytoplasm” value (HeLa PV cells) of the same compound?
**A.** showed the same effect as cycloheximide
